Measurements: ChEMBL document CHEMBL1201861, “Genomics of Drug Sensitity in Cancer screening data, Wellcome Trust Sanger Institute”

Legend:
Test in all cases: cells
COLO-800 = format: functional, cell-based, Homo sapiens; details: Homo sapiens, COLO-800;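 also: growth inhibition of COLO-800 cells, read out with a cell viability assay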
Description: SANGER: Inhibition of human COLO-800 cell growth in a cell viability assay.

CTV-1 = format: functional, cell-based, Homo sapiens; details: Homo sapiens, CTV-1;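 also: growth inhibition of the cell line, read out with a cell viability assay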
Description: SANGER: Inhibition of human CTV-1 cell growth in a cell viability assay.

Calu-6 = format: functional, cell-based, Homo sapiens; details: Homo sapiens, Calu-6;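 also: growth of human Calu-6 cells, read out by a cell viability assay, IC50 marking inhibition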
Description: SANGER: Inhibition of human Calu-6 cell growth in a cell viability assay.

D-502MG = format: functional, cell-based, Homo sapiens; details: Homo sapiens, D-502MG
Description: SANGER: Inhibition of human D-502MG cell growth in a cell viability assay.

ES6 = format: functional, cell-based, Homo sapiens; details: Homo sapiens, ES6;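 also: growth inhibition of human ES6 cells, read out with a cell viability assay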
Description: SANGER: Inhibition of human ES6 cell growth in a cell viability assay.

ES8 = format: functional, cell-based, Homo sapiens; details: Homo sapiens, ES8;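 also: growth inhibition of human ES8 cells, read out with a cell viability assay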
Description: SANGER: Inhibition of human ES8 cell growth in a cell viability assay.

ETK-1 = format: functional, cell-based, Homo sapiens; details: Homo sapiens, ETK-1;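 also: growth inhibition of human ETK-1 cells, read out with a cell viability assay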
Description: SANGER: Inhibition of human ETK-1 cell growth in a cell viability assay.

EW-1 = format: functional, cell-based, Homo sapiens; details: Homo sapiens, EW-1;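 also: growth inhibition of the human EW-1 cell line, read out by a cell viability assay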
Description: SANGER: Inhibition of human EW-1 cell growth in a cell viability assay.

EW-3 = format: functional, cell-based, Homo sapiens; details: Homo sapiens, EW-3;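 also: cell viability assay read-out, IC50 reflects inhibition of growth of the EW-3 cells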
Description: SANGER: Inhibition of human EW-3 cell growth in a cell viability assay.

GCIY = format: functional, cell-based, Homo sapiens; details: Homo sapiens, GCIY;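 also: growth inhibition of the human GCIY cell line, read out by a cell viability assay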
Description: SANGER: Inhibition of human GCIY cell growth in a cell viability assay.

GI-1 = format: functional, cell-based, Homo sapiens; details: Homo sapiens, GI-1;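 also: growth inhibition of human GI-1 cells, measured with a cell viability readout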
Description: SANGER: Inhibition of human GI-1 cell growth in a cell viability assay.

GOTO = format: functional, cell-based, Homo sapiens; details: Homo sapiens, GOTO;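 also: growth inhibition of GOTO cells, read out by a cell viability assay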
Description: SANGER: Inhibition of human GOTO cell growth in a cell viability assay.

GT3TKB = format: functional, cell-based, Homo sapiens; details: Homo sapiens, GT3TKB;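 also: growth inhibition of the cell line, read out with a cell viability assay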
Description: SANGER: Inhibition of human GT3TKB cell growth in a cell viability assay.

HCC2157 = format: functional, cell-based, Homo sapiens; details: Homo sapiens, HCC2157;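 also: growth inhibition of the cancer cell line, read out as cell viability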
Description: SANGER: Inhibition of human HCC2157 cell growth in a cell viability assay.

HCE-4 = format: functional, cell-based, Homo sapiens; details: Homo sapiens, HCE-4;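 also: cell viability assay measuring inhibition of growth in the human HCE-4 cell line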
Description: SANGER: Inhibition of human HCE-4 cell growth in a cell viability assay.

HCE-T = format: functional, cell-based, Homo sapiens; details: Homo sapiens, HCE-T;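 also: cell viability assay read-out, reporting inhibition of HCE-T cell growth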
Description: SANGER: Inhibition of human HCE-T cell growth in a cell viability assay.

HEL = format: functional, cell-based, Homo sapiens; details: Homo sapiens, HEL;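 also: growth inhibition of HEL cells, read out with a cell viability assay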
Description: SANGER: Inhibition of human HEL cell growth in a cell viability assay.

KLE = format: functional, cell-based, Homo sapiens; details: Homo sapiens, KLE;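 also: growth inhibition of human KLE cells, read out with a cell viability assay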
Description: SANGER: Inhibition of human KLE cell growth in a cell viability assay.

KP-N-YS = format: functional, cell-based, Homo sapiens; details: Homo sapiens, KP-N-YS;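 also: cell viability assay measuring inhibition of cell line growth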
Description: SANGER: Inhibition of human KP-N-YS cell growth in a cell viability assay.

L-428 = format: functional, cell-based, Homo sapiens; details: Homo sapiens, L-428
Description: SANGER: Inhibition of human L-428 cell growth in a cell viability assay.

LB1047-RCC = format: functional, cell-based, Homo sapiens; details: Homo sapiens, LB1047-RCC;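 also: inhibition of cell growth, determined with a cell viability assay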
Description: SANGER: Inhibition of human LB1047-RCC cell growth in a cell viability assay.

LU-139 = format: functional, cell-based, Homo sapiens; details: Homo sapiens, LU-139
Description: SANGER: Inhibition of human LU-139 cell growth in a cell viability assay.

Lu-65 = format: functional, cell-based, Homo sapiens; details: Homo sapiens, Lu-65;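 also: growth inhibition of Lu-65 cancer cells, read out by a cell viability assay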
Description: SANGER: Inhibition of human LU-65 cell growth in a cell viability assay.

ML-2 = format: functional, cell-based, Homo sapiens; details: Homo sapiens, ML-2;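 also: growth inhibition of ML-2 cells, measured with a cell viability readout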
Description: SANGER: Inhibition of human ML-2 cell growth in a cell viability assay.

MZ1-PC = format: functional, cell-based, Homo sapiens; details: Homo sapiens, MZ1-PC;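 also: cell viability assay measuring growth inhibition of human MZ1-PC cells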
Description: SANGER: Inhibition of human MZ1-PC cell growth in a cell viability assay.

NB10 = format: functional, cell-based, Homo sapiens; details: Homo sapiens, NB10;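 also: growth inhibition of NB10 cells, read out by a cell viability assay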
Description: SANGER: Inhibition of human NB10 cell growth in a cell viability assay.

NB13 = format: functional, cell-based, Homo sapiens; details: Homo sapiens, NB13;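 also: cell viability readout measuring growth inhibition of human NB13 cells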
Description: SANGER: Inhibition of human NB13 cell growth in a cell viability assay.

NB69 = format: functional, cell-based, Homo sapiens; details: Homo sapiens, NB69;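 also: growth inhibition of NB69 cells, determined by a cell viability assay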
Description: SANGER: Inhibition of human NB69 cell growth in a cell viability assay.

NCI-H1299 = format: functional, cell-based, Homo sapiens; details: Homo sapiens, NCI-H1299;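 also: growth inhibition of human NCI-H1299 cells, read out by a cell viability assay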
Description: SANGER: Inhibition of human NCI-H1299 cell growth in a cell viability assay.

NCI-H1650 = format: functional, cell-based, Homo sapiens; details: Homo sapiens, NCI-H1650;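 also: growth inhibition of human NCI-H1650 cells measured by a cell viability assay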
Description: SANGER: Inhibition of human NCI-H1650 cell growth in a cell viability assay.

NCI-H1770 = format: functional, cell-based, Homo sapiens; details: Homo sapiens, NCI-H1770;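 also: growth inhibition of NCI-H1770 cells determined with a viability readout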
Description: SANGER: Inhibition of human NCI-H1770 cell growth in a cell viability assay.

NCI-H209 = format: functional, cell-based, Homo sapiens; details: Homo sapiens, NCI-H209;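 also: growth inhibition of human NCI-H209 cells, measured by a cell viability assay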
Description: SANGER: Inhibition of human NCI-H209 cell growth in a cell viability assay.

NCI-H2126 = format: functional, cell-based, Homo sapiens; details: Homo sapiens, NCI-H2126;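 also: growth inhibition of the cancer cell line, determined with a cell viability readout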
Description: SANGER: Inhibition of human NCI-H2126 cell growth in a cell viability assay.

NCI-H226 = format: functional, cell-based, Homo sapiens; details: Homo sapiens, NCI-H226;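 also: cell viability read-out used to gauge growth inhibition of the cells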
Description: SANGER: Inhibition of human NCI-H226 cell growth in a cell viability assay.

NCI-H446 = format: functional, cell-based, Homo sapiens; details: Homo sapiens, NCI-H446;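 also: growth inhibition of NCI-H446 cells determined by a cell viability assay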
Description: SANGER: Inhibition of human NCI-H446 cell growth in a cell viability assay.

NCI-N87 = format: functional, cell-based, Homo sapiens; details: Homo sapiens, NCI-N87;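 also: growth inhibition of human NCI-N87 cells, read out with a cell viability assay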
Description: SANGER: Inhibition of human NCI-N87 cell growth in a cell viability assay.

NEC8 = format: functional, cell-based, Homo sapiens; details: Homo sapiens, NEC8;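 also: growth inhibition of human NEC8 cells, read out by a cell viability assay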
Description: SANGER: Inhibition of human NEC8 cell growth in a cell viability assay.

RCC10RGB = format: functional, cell-based, Homo sapiens; details: Homo sapiens, RCC10RGB;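 also: growth inhibition of human RCC10RGB cells, read out by a cell viability assay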
Description: SANGER: Inhibition of human RCC10RGB cell growth in a cell viability assay.

SCH = format: functional, cell-based, Homo sapiens; details: Homo sapiens, SCH;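 also: growth inhibition of human SCH cells, read out in a cell viability assay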
Description: SANGER: Inhibition of human SCH cell growth in a cell viability assay.

SF-126 = format: functional, cell-based, Homo sapiens; details: Homo sapiens, SF-126;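 also: growth inhibition of human SF126 cells, read out with a cell viability assay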
Description: SANGER: Inhibition of human SF126 cell growth in a cell viability assay.

SHP77 = format: functional, cell-based, Homo sapiens, SHP-77; details: Homo sapiens, SHP77;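 also: growth inhibition of human SHP-77 cells measured by a cell viability assay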
Description: SANGER: Inhibition of human SHP-77 cell growth in a cell viability assay.

SK-LMS-1 = format: functional, cell-based, Homo sapiens; details: Homo sapiens, SK-LMS-1;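 also: growth inhibition of human SK-LMS-1 cells, read out with a cell viability assay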
Description: SANGER: Inhibition of human SK-LMS-1 cell growth in a cell viability assay.

SK-MEL-1 = format: functional, cell-based, Homo sapiens; details: Homo sapiens, SK-MEL-1;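 also: growth inhibition of human SK-MEL-1 cells, read out by a cell viability assay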
Description: SANGER: Inhibition of human SK-MEL-1 cell growth in a cell viability assay.

A4-Fuk = format: functional, cell-based, Homo sapiens; details: Homo sapiens, A4-Fuk;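 also: growth inhibition of A4-Fuk cells, read out by a cell viability assay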
Description: SANGER: Inhibition of human A4-Fuk cell growth in a cell viability assay.

AM-38 = format: functional, cell-based, Homo sapiens; details: Homo sapiens, AM-38;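 also: growth inhibition of AM-38 cells of human origin, read out by a cell viability assay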
Description: SANGER: Inhibition of human AM-38 cell growth in a cell viability assay.

ATN-1 = format: functional, cell-based, Homo sapiens; details: Homo sapiens, ATN-1;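 also: growth inhibition of human ATN-1 cells, read out with a cell viability assay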
Description: SANGER: Inhibition of human ATN-1 cell growth in a cell viability assay.

BE-13 = format: functional, cell-based, Homo sapiens; details: Homo sapiens, BE-13;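 also: growth inhibition of human BE-13 cells, measured with a cell viability assay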
Description: SANGER: Inhibition of human BE-13 cell growth in a cell viability assay.

BV-173 = format: functional, cell-based, Homo sapiens; details: Homo sapiens, BV-173
Description: SANGER: Inhibition of human BV-173 cell growth in a cell viability assay.

Becker = format: functional, cell-based, Homo sapiens; details: Homo sapiens, Becker;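 also: growth inhibition of Becker cells, read out with a cell viability assay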
Description: SANGER: Inhibition of human Becker cell growth in a cell viability assay.

TE-12 = format: functional, cell-based, Homo sapiens; details: Homo sapiens, TE-12;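 also: growth inhibition of TE-12 cells, read out by a cell viability assay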
Description: SANGER: Inhibition of human TE-12 cell growth in a cell viability assay.

Oc1ccc2ccccc2c1SSc1c(O)ccc2ccccc12
IC50 (COLO-800): > 32000 nM
IC50 (CTV-1): 9360 nM
IC50 (Calu-6): > 32000 nM
IC50 (D-502MG): > 32000 nM
IC50 (ES6): > 32000 nM
IC50 (ES8): > 32000 nM
IC50 (ETK-1): > 32000 nM
IC50 (EW-1): 14200 nM
IC50 (EW-3): 29500 nM
IC50 (GCIY): > 32000 nM
IC50 (GI-1): > 32000 nM
IC50 (GOTO): > 32000 nM
IC50 (GT3TKB): > 32000 nM
IC50 (HCC2157): > 32000 nM
IC50 (HCE-4): > 32000 nM
IC50 (HCE-T): > 32000 nM
IC50 (HEL): 3730 nM
IC50 (KLE): > 32000 nM
IC50 (KP-N-YS): > 32000 nM
IC50 (L-428): > 32000 nM
IC50 (LB1047-RCC): > 32000 nM
IC50 (LU-139): > 32000 nM
IC50 (Lu-65): > 32000 nM
IC50 (ML-2): 26400 nM
IC50 (MZ1-PC): > 32000 nM
IC50 (NB10): > 32000 nM
IC50 (NB13): 4230 nM
IC50 (NB69): 6760 nM
IC50 (NCI-H1299): > 32000 nM
IC50 (NCI-H1650): > 32000 nM
IC50 (NCI-H1770): > 32000 nM
IC50 (NCI-H209): > 32000 nM
IC50 (NCI-H2126): > 32000 nM
IC50 (NCI-H226): 12600 nM
IC50 (NCI-H446): > 32000 nM
IC50 (NCI-N87): > 32000 nM
IC50 (NEC8): > 32000 nM
IC50 (RCC10RGB): > 32000 nM
IC50 (SCH): > 32000 nM
IC50 (SF-126): > 32000 nM
IC50 (SHP77): > 32000 nM
IC50 (SK-LMS-1): 14800 nM
IC50 (SK-MEL-1): > 32000 nM
IC50 (A4-Fuk): 9440 nM
IC50 (AM-38): 21700 nM
IC50 (ATN-1): > 32000 nM
IC50 (BE-13): > 32000 nM
IC50 (BV-173): > 32000 nM
IC50 (Becker): > 32000 nM
IC50 (TE-12): > 32000 nM

Cc1cc([N+](=O)[O-])ccc1NS(=O)(=O)c1cc(Cl)ccc1Cl
IC50 (COLO-800): 8910 nM
IC50 (CTV-1): 5060 nM
IC50 (Calu-6): 831 nM
IC50 (D-502MG): 607 nM
IC50 (ES6): 3030 nM
IC50 (ES8): 8950 nM
IC50 (ETK-1): 6350 nM
IC50 (EW-1): 15300 nM
IC50 (EW-3): > 32000 nM
IC50 (GCIY): 2940 nM
IC50 (GI-1): 1430 nM
IC50 (GOTO): > 32000 nM
IC50 (GT3TKB): 2900 nM
IC50 (HCC2157): 8760 nM
IC50 (HCE-4): 5450 nM
IC50 (HCE-T): 9590 nM
IC50 (HEL): 6960 nM
IC50 (KLE): 6590 nM
IC50 (KP-N-YS): 15900 nM
IC50 (L-428): > 32000 nM
IC50 (LB1047-RCC): 6740 nM
IC50 (LU-139): 12900 nM
IC50 (Lu-65): 31800 nM
IC50 (ML-2): 7870 nM
IC50 (MZ1-PC): 6310 nM
IC50 (NB10): 16300 nM
IC50 (NB13): 7320 nM
IC50 (NB69): 31300 nM
IC50 (NCI-H1299): 3190 nM
IC50 (NCI-H1650): 8470 nM
IC50 (NCI-H1770): 17100 nM
IC50 (NCI-H209): > 32000 nM
IC50 (NCI-H2126): 24800 nM
IC50 (NCI-H226): 12300 nM
IC50 (NCI-H446): > 32000 nM
IC50 (NCI-N87): 7250 nM
IC50 (NEC8): 21700 nM
IC50 (RCC10RGB): > 32000 nM
IC50 (SCH): 20500 nM
IC50 (SF-126): 9880 nM
IC50 (SHP77): 22900 nM
IC50 (SK-LMS-1): 3100 nM
IC50 (SK-MEL-1): > 32000 nM
IC50 (A4-Fuk): > 32000 nM
IC50 (AM-38): 18800 nM
IC50 (ATN-1): > 32000 nM
IC50 (BE-13): 7530 nM
IC50 (BV-173): > 32000 nM
IC50 (Becker): 16500 nM
IC50 (TE-12): 2940 nM

COc1cccc2c1C(=O)c1c(O)c3c(c(O)c1C2=O)C[C@@](O)(C(=O)CO)C[C@@H]3O[C@H]1C[C@H](N)[C@H](O)[C@H](C)O1 [DOXORUBICIN]
IC50 (COLO-800): 172 nM
IC50 (CTV-1): 16.1 nM
IC50 (Calu-6): 254 nM
IC50 (D-502MG): > 1020 nM
IC50 (ES6): 137 nM
IC50 (ES8): 21.1 nM
IC50 (ETK-1): 83 nM
IC50 (EW-1): 61.3 nM
IC50 (EW-3): 280 nM
IC50 (GCIY): 725 nM
IC50 (GI-1): 69.7 nM
IC50 (GOTO): 286 nM
IC50 (GT3TKB): 67.2 nM
IC50 (HCC2157): 64 nM
IC50 (HCE-4): 18.1 nM
IC50 (HCE-T): 165 nM
IC50 (HEL): 175 nM
IC50 (KLE): 175 nM
IC50 (KP-N-YS): 218 nM
IC50 (L-428): 791 nM
IC50 (LB1047-RCC): 36 nM
IC50 (LU-139): 345 nM
IC50 (Lu-65): 346 nM
IC50 (ML-2): 135 nM
IC50 (MZ1-PC): 23.8 nM
IC50 (NB10): 188 nM
IC50 (NB13): 135 nM
IC50 (NB69): 79.2 nM
IC50 (NCI-H1299): 37.6 nM
IC50 (NCI-H1650): 78.6 nM
IC50 (NCI-H1770): 133 nM
IC50 (NCI-H209): 48.7 nM
IC50 (NCI-H2126): 192 nM
IC50 (NCI-H226): 417 nM
IC50 (NCI-H446): > 1020 nM
IC50 (NCI-N87): 480 nM
IC50 (NEC8): 33.6 nM
IC50 (RCC10RGB): > 1020 nM
IC50 (SCH): > 1020 nM
IC50 (SF-126): 105 nM
IC50 (SHP77): > 1020 nM
IC50 (SK-LMS-1): 53.2 nM
IC50 (SK-MEL-1): > 1020 nM
IC50 (A4-Fuk): 162 nM
IC50 (AM-38): 282 nM
IC50 (ATN-1): 128 nM
IC50 (BE-13): 51 nM
IC50 (BV-173): 251 nM
IC50 (Becker): 522 nM
IC50 (TE-12): 81.1 nM

N#Cc1c(O)c2c(-c3ccc(-c4ccccc4O)cc3)csc2[nH]c1=O
IC50 (COLO-800): > 1020 nM
IC50 (CTV-1): 73 nM
IC50 (Calu-6): > 1020 nM
IC50 (D-502MG): > 1020 nM
IC50 (ES6): > 1020 nM
IC50 (ES8): > 1020 nM
IC50 (ETK-1): > 1020 nM
IC50 (EW-1): > 1020 nM
IC50 (EW-3): > 1020 nM
IC50 (GCIY): > 1020 nM
IC50 (GI-1): > 1020 nM
IC50 (GOTO): 395 nM
IC50 (GT3TKB): > 1020 nM
IC50 (HCC2157): 105 nM
IC50 (HCE-4): > 1020 nM
IC50 (HCE-T): > 1020 nM
IC50 (HEL): 107 nM
IC50 (KLE): > 1020 nM
IC50 (KP-N-YS): > 1020 nM
IC50 (L-428): 225 nM
IC50 (LB1047-RCC): > 1020 nM
IC50 (LU-139): > 1020 nM
IC50 (Lu-65): 520 nM
IC50 (ML-2): 43.4 nM
IC50 (MZ1-PC): > 1020 nM
IC50 (NB10): > 1020 nM
IC50 (NB13): > 1020 nM
IC50 (NB69): 686 nM
IC50 (NCI-H1299): > 1020 nM
IC50 (NCI-H1650): > 1020 nM
IC50 (NCI-H1770): 109 nM
IC50 (NCI-H209): > 1020 nM
IC50 (NCI-H2126): > 1020 nM
IC50 (NCI-H226): 407 nM
IC50 (NCI-H446): > 1020 nM
IC50 (NCI-N87): > 1020 nM
IC50 (NEC8): 480 nM
IC50 (RCC10RGB): > 1020 nM
IC50 (SCH): > 1020 nM
IC50 (SF-126): > 1020 nM
IC50 (SHP77): 383 nM
IC50 (SK-LMS-1): > 1020 nM
IC50 (SK-MEL-1): > 1020 nM
IC50 (A4-Fuk): > 1020 nM
IC50 (AM-38): 64.4 nM
IC50 (ATN-1): 499 nM
IC50 (BE-13): > 1020 nM
IC50 (BV-173): > 1020 nM
IC50 (Becker): > 1020 nM
IC50 (TE-12): > 1020 nM
